# In ChEMBL document CHEMBL3390848, “Affinity selection and sequence-activity relationships of HIV-1 membrane fusion inhibitors directed at the drug-resistant variants” (Medchemcomm, 2010):
# Residues, ends and D or L forms follow the SMILES beside them.
# Experiments:
# [1] = system: Human immunodeficiency virus 1; assay: Antiviral activity against HIV1 NL4-3 harboring gp41 D36G mutant infected in human HeLa cells expressing CD4-LTR-beta-gal assessed as inhibition of viral replication after 48 hrs by MAGI assay; type: functional, organism-based
# [2] = system: Human immunodeficiency virus 1; assay: Thermal stability of HIV1 envelope glycoprotein gp41 His-tagged N-terminal heptad repeat N54-drug complex assessed as thermal unfolding transition state by measuring molar ellipticity at 4 to 90 degC by circular dichroic spectra analysis
# [3] = system: Human immunodeficiency virus 1; assay: Binding affinity to HIV1 His-tagged N-terminal heptad repeat of envelope glycoprotein gp41 assessed as recovery of N54-drug complex after 2 hrs by LC-MS analysis; set-up: concentration or dose not given beside the values
Compound,EC50 [1],Tm [2],Activity [3]
CC[C@H](C)[C@H](NC(=O)[C@H](CC(C)C)NC(=O)[C@H](CCC(=O)O)NC(=O)[C@H](CCC(=O)O)NC(=O)[C@@H](NC(=O)[C@H](CC(C)C)NC(=O)[C@H](CO)NC(=O)[C@@H](NC(=O)[C@H](Cc1ccc(O)cc1)NC(C)=O)[C@@H](C)O)[C@@H](C)CC)C(=O)N[C@@H](CCCCN)C(=O)N[C@@H](CCCCN)C(=O)N[C@@H](CO)C(=O)N[C@@H](CCC(=O)O)C(=O)N[C@@H](CCC(=O)O)C(=O)N[C@@H](CCCCN)C(=O)N[C@@H](CCC(N)=O)C(=O)N[C@@H](CCCCN)C(=O)N[C@@H](CCCCN)C(=O)N[C@@H](CC(N)=O)C(=O)N[C@@H](CCC(=O)O)C(=O)N[C@@H](CCC(=O)O)C(=O)N[C@@H](CCC(=O)O)C(=O)N[C@@H](CC(C)C)C(=O)N[C@@H](CCCCN)C(=O)N[C@@H](CCCCN)C(=O)N[C@@H](CC(C)C)C(=O)N[C@@H](CCC(=O)O)C(=O)N[C@@H](CCC(=O)O)C(=O)N[C@@H](Cc1c[nH]c2ccccc12)C(=O)N[C@@H](C)C(=O)N[C@@H](CCCCN)C(=O)N[C@@H](CCCCN)C(=O)N[C@@H](Cc1c[nH]c2ccccc12)C(=O)N[C@@H](CC(N)=O)C(=O)N[C@@H](Cc1c[nH]c2ccccc12)C(=O)N[C@@H](Cc1ccccc1)C(N)=O (Ac-YTSLIEELIKKSEEKQKKNEEELKKLEEWAKKWNWF-NH2),3.8 nM,65.3 °C,4.8%
CC[C@H](C)[C@H](NC(=O)[C@H](CC(C)C)NC(=O)[C@H](CCC(=O)O)NC(=O)[C@H](CCC(=O)O)NC(=O)[C@@H](NC(=O)[C@H](CC(C)C)NC(=O)[C@H](CO)NC(=O)[C@@H](NC(=O)[C@H](Cc1ccc(O)cc1)NC(C)=O)[C@@H](C)O)[C@@H](C)CC)C(=O)N[C@@H](CCCCN)C(=O)N[C@@H](CCCCN)C(=O)N[C@@H](CCC(=O)O)C(=O)N[C@@H](CCC(=O)O)C(=O)N[C@@H](CCC(=O)O)C(=O)N[C@@H](CCC(N)=O)C(=O)N[C@@H](CCC(N)=O)C(=O)N[C@@H](CCCCN)C(=O)N[C@@H](CCCCN)C(=O)N[C@@H](CC(N)=O)C(=O)N[C@@H](CCC(=O)O)C(=O)N[C@@H](CCC(=O)O)C(=O)N[C@@H](CCC(=O)O)C(=O)N[C@@H](CC(C)C)C(=O)N[C@@H](CCCCN)C(=O)N[C@@H](CCCCN)C(=O)N[C@@H](CC(C)C)C(=O)N[C@@H](CCC(=O)O)C(=O)N[C@@H](CCC(=O)O)C(=O)N[C@@H](Cc1c[nH]c2ccccc12)C(=O)N[C@@H](C)C(=O)N[C@@H](CCCCN)C(=O)N[C@@H](CCCCN)C(=O)N[C@@H](Cc1c[nH]c2ccccc12)C(=O)N[C@@H](CC(N)=O)C(=O)N[C@@H](Cc1c[nH]c2ccccc12)C(=O)N[C@@H](Cc1ccccc1)C(N)=O (Ac-YTSLIEELIKKEEEQQKKNEEELKKLEEWAKKWNWF-NH2),230 nM,61 °C,2.2%
CC[C@H](C)[C@H](NC(=O)[C@H](CC(C)C)NC(=O)[C@H](CCC(=O)O)NC(=O)[C@H](CCC(=O)O)NC(=O)[C@@H](NC(=O)[C@H](CC(C)C)NC(=O)[C@H](CO)NC(=O)[C@@H](NC(=O)[C@H](Cc1ccc(O)cc1)NC(C)=O)[C@@H](C)O)[C@@H](C)CC)C(=O)N[C@@H](CCCCN)C(=O)N[C@@H](CCCCN)C(=O)N[C@@H](CO)C(=O)N[C@@H](CCC(=O)O)C(=O)N[C@@H](CCC(=O)O)C(=O)N[C@@H](CCCNC(=N)N)C(=O)N[C@@H](CCC(N)=O)C(=O)N[C@@H](CCCCN)C(=O)N[C@@H](CCCCN)C(=O)N[C@@H](CC(N)=O)C(=O)N[C@@H](CCC(=O)O)C(=O)N[C@@H](CCC(=O)O)C(=O)N[C@@H](CCC(=O)O)C(=O)N[C@@H](CC(C)C)C(=O)N[C@@H](CCCCN)C(=O)N[C@@H](CCCCN)C(=O)N[C@@H](CC(C)C)C(=O)N[C@@H](CCC(=O)O)C(=O)N[C@@H](CCC(=O)O)C(=O)N[C@@H](Cc1c[nH]c2ccccc12)C(=O)N[C@@H](C)C(=O)N[C@@H](CCCCN)C(=O)N[C@@H](CCCCN)C(=O)N[C@@H](Cc1c[nH]c2ccccc12)C(=O)N[C@@H](CC(N)=O)C(=O)N[C@@H](Cc1c[nH]c2ccccc12)C(=O)N[C@@H](Cc1ccccc1)C(N)=O (Ac-YTSLIEELIKKSEERQKKNEEELKKLEEWAKKWNWF-NH2),1.5 nM,68.9 °C,7.2%
CC[C@H](C)[C@H](NC(=O)[C@H](CC(C)C)NC(=O)[C@H](CCC(=O)O)NC(=O)[C@H](CCC(=O)O)NC(=O)[C@@H](NC(=O)[C@H](CC(C)C)NC(=O)[C@H](CO)NC(=O)[C@@H](NC(=O)[C@H](Cc1ccc(O)cc1)NC(C)=O)[C@@H](C)O)[C@@H](C)CC)C(=O)N[C@@H](CCCCN)C(=O)N[C@@H](CCCCN)C(=O)NCC(=O)N[C@@H](CCC(=O)O)C(=O)N[C@@H](CCC(=O)O)C(=O)N[C@@H](CCC(N)=O)C(=O)N[C@@H](CCC(N)=O)C(=O)N[C@@H](CCCCN)C(=O)N[C@@H](CCCCN)C(=O)N[C@@H](CC(N)=O)C(=O)N[C@@H](CCC(=O)O)C(=O)N[C@@H](CCC(=O)O)C(=O)N[C@@H](CCC(=O)O)C(=O)N[C@@H](CC(C)C)C(=O)N[C@@H](CCCCN)C(=O)N[C@@H](CCCCN)C(=O)N[C@@H](CC(C)C)C(=O)N[C@@H](CCC(=O)O)C(=O)N[C@@H](CCC(=O)O)C(=O)N[C@@H](Cc1c[nH]c2ccccc12)C(=O)N[C@@H](C)C(=O)N[C@@H](CCCCN)C(=O)N[C@@H](CCCCN)C(=O)N[C@@H](Cc1c[nH]c2ccccc12)C(=O)N[C@@H](CC(N)=O)C(=O)N[C@@H](Cc1c[nH]c2ccccc12)C(=O)N[C@@H](Cc1ccccc1)C(N)=O (Ac-YTSLIEELIKKGEEQQKKNEEELKKLEEWAKKWNWF-NH2),0.4 nM,76.7 °C,9.6%
CC[C@H](C)[C@H](NC(=O)[C@H](CC(C)C)NC(=O)[C@H](CCC(=O)O)NC(=O)[C@H](CCC(=O)O)NC(=O)[C@@H](NC(=O)[C@H](CC(C)C)NC(=O)[C@H](CO)NC(=O)[C@@H](NC(=O)[C@H](Cc1ccc(O)cc1)NC(C)=O)[C@@H](C)O)[C@@H](C)CC)C(=O)N[C@@H](CCCCN)C(=O)N[C@@H](CCCCN)C(=O)N[C@@H](CCCNC(=N)N)C(=O)N[C@@H](CCC(=O)O)C(=O)N[C@@H](CCC(=O)O)C(=O)N[C@@H](CCC(N)=O)C(=O)N[C@@H](CCC(N)=O)C(=O)N[C@@H](CCCCN)C(=O)N[C@@H](CCCCN)C(=O)N[C@@H](CC(N)=O)C(=O)N[C@@H](CCC(=O)O)C(=O)N[C@@H](CCC(=O)O)C(=O)N[C@@H](CCC(=O)O)C(=O)N[C@@H](CC(C)C)C(=O)N[C@@H](CCCCN)C(=O)N[C@@H](CCCCN)C(=O)N[C@@H](CC(C)C)C(=O)N[C@@H](CCC(=O)O)C(=O)N[C@@H](CCC(=O)O)C(=O)N[C@@H](Cc1c[nH]c2ccccc12)C(=O)N[C@@H](C)C(=O)N[C@@H](CCCCN)C(=O)N[C@@H](CCCCN)C(=O)N[C@@H](Cc1c[nH]c2ccccc12)C(=O)N[C@@H](CC(N)=O)C(=O)N[C@@H](Cc1c[nH]c2ccccc12)C(=O)N[C@@H](Cc1ccccc1)C(=O)O (Ac-YTSLIEELIKKREEQQKKNEEELKKLEEWAKKWNWF-OH),320 nM,49.4 °C,1.5%
